Laboratory results as given in PMC6804212, “Chain Substituted Cannabilactones with Selectivity for the CB2 Cannabinoid Receptor” (Molecules, 2019).
Read-outs that look alike come from different tables or passages of the source.

Key:
mouse CB2 receptor = molecular target: T1, mouse CB2 receptor (Mus musculus, UniProt P47936); assay: Radioligand competition binding, [3H]CP-55,940, membranes from HEK293 cells expressing mouse CB2; details: for selectivity for mCB2 over rCB1: from Ki values; for rCB1/mCB2: ratio of Ki values, rCB1 over mCB2
T1 construct: expressed in transfected cells; host or cells: HEK293
T1 sequence (P47936 whole entry): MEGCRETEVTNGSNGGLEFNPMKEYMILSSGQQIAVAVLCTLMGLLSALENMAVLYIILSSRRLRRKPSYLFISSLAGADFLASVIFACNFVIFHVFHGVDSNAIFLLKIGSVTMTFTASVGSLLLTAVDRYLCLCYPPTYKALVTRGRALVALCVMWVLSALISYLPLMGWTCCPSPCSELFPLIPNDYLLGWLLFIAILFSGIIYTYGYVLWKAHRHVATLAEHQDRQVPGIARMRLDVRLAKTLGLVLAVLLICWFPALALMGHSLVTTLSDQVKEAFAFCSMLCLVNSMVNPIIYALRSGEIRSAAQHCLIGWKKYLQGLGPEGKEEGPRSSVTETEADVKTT
Description: (§1) Inhibition constant values (Ki) from the respective competition binding curves are listed in Table 1 in which our first generation cannabilactone analog AM1714 is included for comparison. The current data of AM1714 for mCB2 are slightly different when compared to those we published earlier. This is because the compound was first assayed in a different mCB2 receptor preparation, e.g., mouse spleen membrane.
(§2) Results from the competition assays were analyzed using nonlinear regression to determine the IC50 values for the ligand [59]; Ki values were calculated from the IC50 (Prism by GraphPad Software, Inc.). Each experiment was performed in triplicate and Ki values determined from three independent experiments and are expressed as the mean of the three values.

hCB2 receptor [1] = molecular target: T2, hCB2 receptor (Homo sapiens, UniProt P34972); assay: Radioligand competition binding, [3H]CP-55,940, membranes from HEK293 cells expressing human CB2; design: expressed in transfected cells; host or cells: HEK293; details: for greater affinity for mCB2 than for hCB2: from Ki values; for hCB2/mCB2 / rCB1/hCB2: ratio of Ki values; for hCB2/mCB2: hCB2 over mCB2; for rCB1/hCB2: rCB1 over hCB2; for Ki: read-out: Ki hCB2
T2 sequence (P34972 whole entry): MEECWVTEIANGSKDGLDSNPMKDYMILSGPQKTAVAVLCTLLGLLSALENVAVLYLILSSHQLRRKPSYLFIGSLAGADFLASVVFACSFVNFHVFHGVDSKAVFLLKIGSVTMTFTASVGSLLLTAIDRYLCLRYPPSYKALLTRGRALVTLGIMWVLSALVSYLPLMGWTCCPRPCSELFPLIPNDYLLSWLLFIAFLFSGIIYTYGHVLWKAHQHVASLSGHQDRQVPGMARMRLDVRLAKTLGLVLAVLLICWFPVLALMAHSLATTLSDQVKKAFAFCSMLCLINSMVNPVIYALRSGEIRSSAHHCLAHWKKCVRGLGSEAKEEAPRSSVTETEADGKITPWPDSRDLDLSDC
Description: Indeed, in our original work on the cannabilactone class of compounds, we have identified species-specific variation in CB2 affinity. For this reason, the key compounds were also assayed using membranes from HEK293 cells expressing human CB2 (hCB2).
as §2

hCB2 receptor [2] = molecular target: T2, hCB2 receptor; assay: cAMP assay: decrease in forskolin-stimulated cAMP in HEK293 cells stably expressing hCB2; assay type: cell-based; design: expressed in transfected cells; details: for classification at hCB2: forskolin-stimulated cAMP assay; for E(max): maximum inhibition of forskolin stimulated cAMP levels, as percentage of CP-55,940 response at 500 nM
Description: HEK293 cells stably expressing hCB2 receptors were used for the studies. The cAMP assay was carried out using PerkinElmer’s Lance ultra cAMP kit following the protocol of the manufacturer. Briefly, the assays were carried out in 384-well plates using 1000–1500 cells/well. The cells were harvested with non-enzymatic cell dissociation reagent Versene, washed once with HBSS and resuspended in the stimulation buffer. The various concentrations of the test compound (5 μL) in forskolin (2 μM final concentration) containing stimulation buffer were added to the plate followed by the cell suspension (5 μL). Cells were stimulated for 30 min at room temperature. Eu-cAMP tracer working solution (5 μL) and Ulight-anti-cAMP working solution (5 μL) were then added to the plate and incubated at room temperature for 60 min. The data were collected on a Perkin-Elmer Envision instrument. The EC50 values were determined by non-linear regression analysis using GraphPad Prism software (GraphPad Software, Inc., San Diego, CA, USA).

rat CB1 receptor = molecular target: T3, rat CB1 receptor (Rattus norvegicus, UniProt P20272); assay: Radioligand competition binding, [3H]CP-55,940, rat brain membranes
T3 construct: membrane preparations from rat brain; from tissue; host or cells: rat brain membranes
T3 sequence (P20272 whole entry): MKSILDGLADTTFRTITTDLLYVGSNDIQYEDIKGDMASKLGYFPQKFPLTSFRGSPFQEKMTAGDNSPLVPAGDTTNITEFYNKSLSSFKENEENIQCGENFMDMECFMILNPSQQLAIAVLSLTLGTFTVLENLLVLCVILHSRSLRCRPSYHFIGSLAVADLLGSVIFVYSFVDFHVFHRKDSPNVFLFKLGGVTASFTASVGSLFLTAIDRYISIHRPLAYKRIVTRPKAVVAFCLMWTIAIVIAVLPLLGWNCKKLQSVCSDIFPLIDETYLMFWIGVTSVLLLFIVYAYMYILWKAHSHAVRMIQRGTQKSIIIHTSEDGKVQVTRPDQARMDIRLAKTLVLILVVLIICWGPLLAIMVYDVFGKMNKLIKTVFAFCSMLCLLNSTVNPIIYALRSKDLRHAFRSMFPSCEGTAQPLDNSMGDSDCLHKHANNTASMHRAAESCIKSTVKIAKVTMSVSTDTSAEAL
Description: as §1, §2

| SMILES | rCB1/mCB2 (mouse CB2 receptor) | Ki (mouse CB2 receptor) [nM] | Ki (rat CB1 receptor; read-out: Ki rCB1) [nM] | melting point [°C] | further results |
| --- | --- | --- | --- | --- | --- |
| CCCCCCC(C)(C)c1cc(O)c2c(c1)oc(=O)c1ccc(O)cc12 [Compound 1b, reference compound] | 21.3 | – | – | – | selectivity for mCB2 over rCB1 (mouse CB2 receptor): 21- to 32 fold; Ki (mouse CB2 receptor; read-out: Ki mCB2): 4.7 ± 1.8 nM; greater affinity for mCB2 than for hCB2 (hCB2 receptor [1]): 18 fold; hCB2/mCB2 (hCB2 receptor [1]): 17.7; rCB1/hCB2 (hCB2 receptor [1]): 1.2; Ki (hCB2 receptor [1]): 83.6 ± 23.2 nM; EC50 (hCB2 receptor [2]): 36.9 ± 6.8 nM; classification at hCB2 (hCB2 receptor [2]): agonist; E(max) (hCB2 receptor [2]): 77%; Ki (rat CB1 receptor): 100 ± 24 nM |
| O=c1oc2cc(C3(CCCBr)CCCC3)cc(O)c2c2cc(O)ccc12 [Compound 3c, 3-[1-(3-Bromopropyl)cyclopentyl]-1,9-dihydroxy-6H-dibenzo[b,d]pyran-6-one] | – | 24.3 ± 3.9 | 405 ± 122 | – | – |
| CCCCCCC(C)(C)c1cc(O)c2c(c1)oc(=O)c1ccc(OC)cc12 [Compound 1a] | – | – | – | – | EC50 (hCB2 receptor [2]): 10.5 ± 2.5 nM; classification at hCB2 (hCB2 receptor [2]): agonist; E(max) (hCB2 receptor [2]): 73% |
| CCCCCCC1(c2cc(O)c(-c3cc(O)ccc3C(=O)N(C(C)C)C(C)C)c(O)c2)CCCC1 [Compound 23d, 4′-(1-Hexyl-cyclopentyl)-2′,5,6′-trihydroxy-N,N-diisopropyl-[1,1′-biphenyl]-2-carboxamide] | 59.8 | 5.7 ± 1.5 | 341 ± 100 | 185 to 187 | selectivity for mCB2 over rCB1 (mouse CB2 receptor): 60 fold; response in hCB2 cAMP assay (hCB2 receptor [2]; concentrations up to 2 μM): failed to show any responses |
| O=c1oc2cc(C3(CCCCCBr)CCCC3)cc(O)c2c2cc(O)ccc12 [Compound 3b, 3-[1-(5-Bromopentyl)cyclopentyl]-1,9-dihydroxy-6H-dibenzo[b,d]pyran-6-one] | – | 16.3 ± 5.2 | 370 ± 130 | – | – |
| N#CCCCC1(c2cc(O)c3c(c2)oc(=O)c2ccc(O)cc23)CCCC1 [Compound 3g, 3-[1-(3-Cyanopropyl)cyclopentyl]-1,9-dihydroxy-6H-dibenzo[b,d]pyran-6-one] | 16.2 | 17.9 ± 5.8 | 290 ± 64 | 118 to 120 | – |
| CC(C)N(C(=O)c1ccc(O)cc1-c1c(O)cc(C2(CCCCBr)CCCC2)cc1O)C(C)C [Compound 23a, 4′-[1-(4-Bromobutyl)cyclopentyl]-2′,5,6′-trihydroxy-N,N-diisopropyl-[1,1′-biphenyl]-2-carboxamide] | 31.3 | 22.4 ± 4.5 | 702 ± 220 | 183 to 185 | – |
| CC(C)N(C(=O)c1ccc(O)cc1-c1c(O)cc(C2(CCCCCBr)CCCC2)cc1O)C(C)C [Compound 23b, 4′-[1-(5-Bromopentyl)cyclopentyl]-2′,5,6′-trihydroxy-N,N-diisopropyl-[1,1′-biphenyl]-2-carboxamide] | 42.8 | 17.4 ± 4.8 | 745 ± 215 | 190 to 192 | – |
| N#CCCCCCC1(c2cc(O)c3c(c2)oc(=O)c2ccc(O)cc23)CCCC1 [Compound 3f, 3-[1-(5-Cyanopentyl)cyclopentyl]-1,9-dihydroxy-6H-dibenzo[b,d]pyran-6-one] | – | – | – | – | Ki (mouse CB2 receptor; read-out: Ki mCB2): 4.9 ± 1.2 nM; greater affinity for mCB2 than for hCB2 (hCB2 receptor [1]): 7 fold; Ki (hCB2 receptor [1]): 33.8 ± 10.4 nM; EC50 (hCB2 receptor [2]): 3.7 ± 1.5 nM; classification at hCB2 (hCB2 receptor [2]): agonist; classification at hCB2 (hCB2 receptor [2]; listed as AM4346): potent CB2 agonist; E(max) (hCB2 receptor [2]): 89%; Ki (rat CB1 receptor): 640 ± 152 nM |
| N#CCCCCC1(c2cc(O)c3c(c2)oc(=O)c2ccc(O)cc23)CCCC1 [Compound 3e, 3-[1-(4-Cyanobutyl)cyclopentyl]-1,9-dihydroxy-6H-dibenzo[b,d]pyran-6-one] | 25.7 | 11.8 ± 4.1 | 304 ± 73 | 138 to 140 | – |
| CC(C)N(C(=O)c1ccc(O)cc1-c1c(O)cc(C2(CCCBr)CCCC2)cc1O)C(C)C [Compound 23c, 4′-[1-(3-Bromopropyl)cyclopentyl]-2′,5,6′-trihydroxy-N,N-diisopropyl-[1,1′-biphenyl]-2-carboxamide] | 21.8 | 10.5 ± 3.5 | 229 ± 70 | 178 to 180 | – |
| O=c1oc2cc(C3(CCCCBr)CCCC3)cc(O)c2c2cc(O)ccc12 [Compound 3a, 3-[1-(4-Bromobutyl)cyclopentyl]-1,9-dihydroxy-6H-dibenzo[b,d]pyran-6-one] | 18.8 | 20.8 ± 5.9 | 390 ± 132 | 96 to 98 | – |
| CCCCCCC1(c2cc(O)c3c(c2)oc(=O)c2ccc(O)cc23)CCCC1 [Compound 3d, 3-(1-Hexyl-cyclopentyl]-1,9-dihydroxy-6H-dibenzo[b,d]pyran-6-one] | 31.7 | – | – | 153 to 155 | selectivity for mCB2 over rCB1 (mouse CB2 receptor): 21- to 32 fold; Ki (mouse CB2 receptor; read-out: Ki mCB2): 8.4 ± 2.5 nM; greater affinity for mCB2 than for hCB2 (hCB2 receptor [1]): 3 fold; hCB2/mCB2 (hCB2 receptor [1]): 3.3; rCB1/hCB2 (hCB2 receptor [1]): 9.5; Ki (hCB2 receptor [1]): 28 ± 9.7 nM; Ki (rat CB1 receptor): 266 ± 58 nM |
